These results are taken from ChEMBL document CHEMBL5338756, “Dual-Acting Small Molecules: Subtype-Selective Cannabinoid Receptor 2 Agonist/Butyrylcholinesterase Inhibitor Hybrids Show Neuroprotection in an Alzheimer's Disease Mouse Model” (J Med Chem, 2023).

Molecules are shown by their SMILES. Where “and” joins values, the source holds several entries; their conditions need not be identical. Identical values can stand only once.

In assay [1] the target is T1, Cannabinoid receptor 2 (Homo sapiens, UniProt P34972). As to the kind of experiment: Displacement of [3H]CP55940 from human CB2 receptor expressed in HEK293 cell membrane at 10 uM incubated for 3 hrs by scintillation counter analysis relative to control. It is filed as cell membranes.
Assay [2] deals with T2, Acetylcholinesterase (Homo sapiens, UniProt P22303).
The target of assay [3] is T1, Cannabinoid receptor 2.
Assay [4] has as its target T1, Cannabinoid receptor 2. The source holds these as a separate data set.
Description: Displacement of [3H]CP55940 from human CB2 receptor expressed in HEK293 cell membrane incubated for 3 hrs by scintillation counter analysis
Assay [5] addresses T1, Cannabinoid receptor 2. As to the kind of experiment: Agonist activity at human CB2 receptor stably expressed in CHO-K1 cells co-expressing Galphaq16 by Fluo-4AM dye based calcium mobilization assay relative to CP55940. It is filed as functional, cell-based.
Assay [6] deals with Cannabinoid receptor 1 (Rattus norvegicus) (UniProt P20272). As to the kind of experiment: Displacement of [3H]CP55940 from rat brain membrane CB1 receptor at 10 uM incubated for 3 hrs by scintillation counter analysis relative to control. It is filed as cell membranes.
Assay [7] has as its target T3, Cholinesterase (Homo sapiens, UniProt P06276).
Assay [8] has as its target T1, Cannabinoid receptor 2. The source holds these as a separate data set.
Description: Agonist activity at human CB2 receptor stably expressed in HEK293 cells assessed as induction of beta-arrestin 2 recruitment incubated for 2 hrs by luminescence based assay
Assay [9] has as its target T2, Acetylcholinesterase. The source holds these as a separate data set.
The target of assay [10] is T3, Cholinesterase. The source holds these as a separate data set.
Assay [11] has as its target T1, Cannabinoid receptor 2. Nature of the assay: biochemical.
Description: Displacement of [3H]CP55940 from human CB2 receptor stably expressed in HEK293 cells by Cheng-Prusoff equation analysis
Assay [12] deals with Mus musculus. Nature of the assay: Synergistic neuroprotective activity against amyloid beta (25 to 35) induced Alzheimer's disease Swiss mouse model assessed as combination index at 0.1 mg/kg, ip administered once daily for day 1 to day 7 […] and measured on day 8 in presence of 2-benzyl-N,N-diethyl-1-isopentyl-1H-benzo[d]imidazole-5-carboxamide by spontaneous alternation performance test. It is filed as functional.

In assay [13] the test system is Mus musculus. As to the kind of experiment: Synergistic neuroprotective activity against amyloid beta (25 to 35) induced Alzheimer's disease Swiss mouse model assessed as combination index at 0.1 to 1 mg/kg, ip administered once daily for day 1 to day 7 […] and measured on day 9 and 10 in presence of 2-benzyl-N,N-diethyl-1-isopentyl-1H-benzo[d]imidazole-5-carboxamide by step-through passive avoidance test. The note with it: dose 0.1-1 mg/kg. It is filed as functional.

The target in assay [14] is T1, Cannabinoid receptor 2. Nature of the assay: Agonist activity at human CB2 receptor stably expressed in HEK293 cells assessed as induction of beta-arrestin 2 recruitment at 10 uM incubated for 2 hrs by luminescence based assay relative to CP55940. In kind it is functional, cell-based. As to conditions: filed as agonist.

T3 sequence (P06276 whole entry): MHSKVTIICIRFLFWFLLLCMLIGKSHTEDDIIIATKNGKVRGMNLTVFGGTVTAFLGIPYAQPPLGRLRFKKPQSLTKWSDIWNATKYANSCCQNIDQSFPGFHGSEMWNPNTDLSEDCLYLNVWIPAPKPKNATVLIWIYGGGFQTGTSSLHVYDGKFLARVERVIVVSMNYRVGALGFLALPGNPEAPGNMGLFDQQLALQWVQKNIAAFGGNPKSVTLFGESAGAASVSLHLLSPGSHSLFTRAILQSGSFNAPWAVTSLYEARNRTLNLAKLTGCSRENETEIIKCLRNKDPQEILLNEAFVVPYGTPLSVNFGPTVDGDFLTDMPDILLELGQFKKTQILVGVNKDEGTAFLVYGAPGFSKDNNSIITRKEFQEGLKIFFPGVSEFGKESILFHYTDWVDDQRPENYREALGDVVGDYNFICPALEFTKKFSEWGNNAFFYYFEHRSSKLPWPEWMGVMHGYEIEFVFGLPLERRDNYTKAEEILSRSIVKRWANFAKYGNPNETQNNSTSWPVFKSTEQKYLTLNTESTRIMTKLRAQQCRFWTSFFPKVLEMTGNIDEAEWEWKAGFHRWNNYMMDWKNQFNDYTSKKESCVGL
T1 sequence (P34972 whole entry): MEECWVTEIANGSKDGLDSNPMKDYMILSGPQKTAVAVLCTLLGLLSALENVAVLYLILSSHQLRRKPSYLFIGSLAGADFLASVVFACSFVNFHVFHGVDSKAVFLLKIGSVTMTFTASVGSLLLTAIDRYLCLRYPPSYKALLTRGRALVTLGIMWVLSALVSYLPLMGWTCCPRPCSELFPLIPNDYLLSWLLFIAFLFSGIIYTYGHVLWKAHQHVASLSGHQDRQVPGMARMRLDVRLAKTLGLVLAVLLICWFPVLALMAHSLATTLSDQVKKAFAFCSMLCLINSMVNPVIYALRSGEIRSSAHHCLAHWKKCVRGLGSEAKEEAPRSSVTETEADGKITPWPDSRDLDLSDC
Chain of Cannabinoid receptor 1 (Rattus norvegicus) (P20272 whole entry): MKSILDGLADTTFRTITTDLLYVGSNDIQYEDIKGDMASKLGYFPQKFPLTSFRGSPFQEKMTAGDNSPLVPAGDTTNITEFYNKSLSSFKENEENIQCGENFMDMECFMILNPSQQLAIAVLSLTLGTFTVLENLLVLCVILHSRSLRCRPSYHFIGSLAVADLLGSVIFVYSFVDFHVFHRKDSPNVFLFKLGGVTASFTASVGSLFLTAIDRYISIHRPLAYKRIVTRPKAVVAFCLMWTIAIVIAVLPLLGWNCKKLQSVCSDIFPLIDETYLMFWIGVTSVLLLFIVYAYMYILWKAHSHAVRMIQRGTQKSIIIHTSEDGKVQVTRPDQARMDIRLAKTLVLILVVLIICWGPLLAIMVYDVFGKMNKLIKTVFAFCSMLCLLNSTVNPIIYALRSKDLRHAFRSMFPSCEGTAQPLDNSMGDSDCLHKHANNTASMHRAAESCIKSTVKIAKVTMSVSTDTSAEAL
T2 sequence (P22303 whole entry): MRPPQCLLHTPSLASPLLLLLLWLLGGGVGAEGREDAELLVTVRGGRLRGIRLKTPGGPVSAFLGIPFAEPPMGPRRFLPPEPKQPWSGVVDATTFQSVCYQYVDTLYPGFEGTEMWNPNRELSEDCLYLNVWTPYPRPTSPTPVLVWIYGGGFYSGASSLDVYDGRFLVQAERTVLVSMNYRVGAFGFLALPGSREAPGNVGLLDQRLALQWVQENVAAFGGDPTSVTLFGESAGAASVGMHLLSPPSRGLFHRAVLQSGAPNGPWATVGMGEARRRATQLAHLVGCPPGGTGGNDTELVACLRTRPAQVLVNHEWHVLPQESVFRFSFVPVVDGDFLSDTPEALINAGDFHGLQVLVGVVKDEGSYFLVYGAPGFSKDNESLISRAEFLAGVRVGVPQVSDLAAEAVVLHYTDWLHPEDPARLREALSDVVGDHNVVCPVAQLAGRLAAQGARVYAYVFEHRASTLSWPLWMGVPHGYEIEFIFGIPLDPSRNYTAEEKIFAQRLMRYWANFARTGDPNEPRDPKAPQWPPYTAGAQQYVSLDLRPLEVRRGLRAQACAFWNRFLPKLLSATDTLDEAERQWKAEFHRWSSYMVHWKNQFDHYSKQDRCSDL

`CCN(CC)C(=O)c1ccc2c(c1)nc(Cc1ccc(OC(=O)NC)cc1)n2CCC(C)C`: on Cannabinoid receptor 2 [1], the Activity stood at 33%.

Take `CCOc1ccc(Cc2nc3cc(OC(=O)N4CCC4)ccc3n2CCC(C)C)cc1`: the IC50 was over 25.1 µM on Acetylcholinesterase [2], 1.02 µM against Cannabinoid receptor 2 [4] and 0.15 µM against Cholinesterase [7]. In addition, the EC50 on Cannabinoid receptor 2 [3] was determined as 1.3 µM; on Cannabinoid receptor 2 [8] it was 0.0426 µM. Moreover, the Emax at Cannabinoid receptor 2 [5] (filed as agonist) was found to be 68%. In addition, in assay [6] (filed as agonist), the Activity worked out at 41%.

On to `O=c1cc(-c2ccc(O)cc2)oc2cccc(OCc3ccccc3)c12`, for which the IC50 came to 0.711 µM against Acetylcholinesterase [9] and 0.0069 µM against Cholinesterase [10].

On to `CCN(CC)C(=O)c1ccc2c(c1)nc(Cc1ccc(OC(=O)N(C)Cc3ccccc3)cc1)n2CCC(C)C`, for which the IC50 against Acetylcholinesterase [2] was 9.01 µM; against Cannabinoid receptor 2 [4] it was 2.6 µM; against Cholinesterase [7], 0.39 µM. In assay [6] (filed as agonist), this molecule came in with an Activity of 51%.

On to `CCN(CC)C(=O)c1ccc2c(c1)nc(Cc1ccc(OC(=O)NCc3ccccc3)cc1)n2CCC(C)C`, for which the IC50 on Acetylcholinesterase [2] is 4.5 µM and 3.98 µM; at Cannabinoid receptor 2 [4] it was 11 µM; on Cholinesterase [7], 0.19 µM. Also, at Cannabinoid receptor 2 [3], the EC50 is 7.71 µM. Moreover, on Cannabinoid receptor 2 [5], the Emax is 22%. This molecule registered an Activity in assay [6] of under 10%.

Regarding `Cc1cc([N+](=O)[O-])c2oc(-c3ccc(OCCOCCNC(=O)OC(C)(C)C)cc3)cc(=O)c2c1`, half-maximal inhibition at Cholinesterase [10] (IC50) was put at 1.6 µM. This molecule showed a Ki at Cannabinoid receptor 2 [11] of 0.764 µM. Moreover, the values for the CI with Mus musculus [12] and in the assay on Mus musculus [13] were 0.49 and 0.65, respectively.

Turning to `CC(C)(C)OC(=O)NCCOCCOc1ccc(-c2cc(=O)c3c(OCc4ccccc4)cccc3o2)cc1`, on Cholinesterase [10], the IC50 came out at 1.78 µM. This molecule also came in with a Ki on Cannabinoid receptor 2 [11] of 2 µM.

In the case of `CCCN(C)C(=O)Oc1ccc(Cc2nc3cc(C(=O)N(CC)CC)ccc3n2CCC(C)C)cc1`, the results for the IC50 against Acetylcholinesterase [2] and against Cholinesterase [7] were over 25.1 µM and 1.06 µM, respectively. Also, the Activity in assay [6] (filed as agonist) is 46%.

Regarding `CCN(CC)C(=O)c1ccc2c(c1)nc(Cc1ccc(OC(=O)NC3CC3)cc1)n2CCC(C)C`, the Activity turned out to be 50% on Cannabinoid receptor 2 [1] (filed as agonist) and 32% in assay [6]. For the same molecule, the IC50 was over 25.1 µM against Acetylcholinesterase [2]; 0.07 µM and 0.0794 µM against Cholinesterase [7].

As to `Cc1c(C(=O)NN2CCCCC2)nn(-c2ccc(Cl)cc2Cl)c1-c1ccc(Cl)cc1`, the Activity at Cannabinoid receptor 2 [1] is under 10%.

Regarding `CCOc1ccc(Cc2nc3cc(OC(=O)NC4CC4)ccc3n2CCC(C)C)cc1`, the IC50 against Acetylcholinesterase [2] was over 25.1 µM; on Cannabinoid receptor 2 [4] it was 1.01 µM; on Cholinesterase [7], 1.35 µM. Moreover, in [6], the Activity turned out to be 22%.

On Cholinesterase [10], `NCCOCCOc1ccc(-c2cc(=O)c3ccccc3o2)cc1` showed an IC50 of 13.4 µM. At Cannabinoid receptor 2 [11], this molecule came in with a Ki of 0.02 µM.

For the molecule `CCN(CC)C(=O)Oc1ccc(Cc2nc3cc(C(=O)N(CC)CC)ccc3n2CCC(C)C)cc1`, the figures for the Activity (on Cannabinoid receptor 2 [1]; in assay [6] (filed as agonist)) were under 10% and 43%, respectively. The IC50 against Acetylcholinesterase [2] is over 25.1 µM; against Cholinesterase [7], 4.22 µM.

Take `O=c1cc(-c2ccc(O)cc2)oc2ccccc12`: the IC50 stood at 1.5 µM on Acetylcholinesterase [9] and 0.304 µM against Cholinesterase [10].

Regarding `CCN(CC)C(=O)c1ccc2c(c1)nc(Cc1ccc(OC(=O)N(C)c3ccccc3)cc1)n2CCC(C)C`, the 50% inhibitory concentration (IC50) at Acetylcholinesterase [2] is 3.46 µM; on Cannabinoid receptor 2 [4], 3.85 µM; against Cholinesterase [7], 10.1 µM. In assay [6], this molecule gave an Activity of 25%.

In the case of `CCOc1ccc(Cc2nc3cc(OC(=O)N(C)CC)ccc3n2CCC(C)C)cc1`, the IC50 was over 25.1 µM at Acetylcholinesterase [2], 0.58 µM at Cannabinoid receptor 2 [4] and 2.9 µM against Cholinesterase [7]. Moreover, the Activity in assay [6] (filed as agonist) came to 80%.

For the molecule `CCOc1ccc(Cc2nc3cc(OC(=O)N4CCCC4)ccc3n2CCC(C)C)cc1`, the IC50 at Acetylcholinesterase [2] was over 25.1 µM; on Cannabinoid receptor 2 [4], 1.52 µM; at Cholinesterase [7], 3.58 µM and 3.16 µM. The same molecule came in with an Activity in [6] (filed as agonist) of 49%.

As for `CCN(CC)C(=O)c1ccc2c(c1)nc(Cc1ccc(O)cc1)n2CCC(C)C`, the figures for the IC50 against Cannabinoid receptor 2 [4] and on Cholinesterase [7] were 2.21 µM and over 25.1 µM, respectively. Also, the Activity in [6] was 10%.

`CCNC(=O)Oc1ccc(Cc2nc3cc(C(=O)N(CC)CC)ccc3n2CCC(C)C)cc1`: the Activity stood at 19% at Cannabinoid receptor 2 [1] and 37% in [6]. For the same molecule, the IC50 at Acetylcholinesterase [2] is over 25.1 µM; on Cholinesterase [7], 0.81 µM.

Take `CCOc1ccc(Cc2nc3cc(O)ccc3n2CCC(C)C)cc1`: the concentration for half-maximal inhibition (IC50) was over 25.1 µM against Acetylcholinesterase [2] and 5.53 µM on Cannabinoid receptor 2 [4]. Besides, the Activity in assay [6] was 19%.

Consider `CCN(CC)C(=O)c1ccc2c(c1)nc(Cc1ccc(OC(=O)N(C)C)cc1)n2CCC(C)C`, for which the IC50 against Acetylcholinesterase [2] is 8.66 µM; against Cannabinoid receptor 2 [4], 0.78 µM; on Cholinesterase [7] it was 0.62 µM. The EC50 on Cannabinoid receptor 2 [3] came out at 0.244 µM; at Cannabinoid receptor 2 [8], 0.082 µM. The Emax is 42% at Cannabinoid receptor 2 [5] (filed as agonist) and 79% on Cannabinoid receptor 2 [14]. The same molecule registered an Activity in [6] of under 10%.

On to `CCOc1ccc(Cc2nc3cc(OC(=O)N(C)C)ccc3n2CCC(C)C)cc1`, for which the IC50 on Acetylcholinesterase [2] was over 25.1 µM; against Cannabinoid receptor 2 [4] it was 1.19 µM; at Cholinesterase [7], over 25.1 µM. This molecule also had an Activity in assay [6] (filed as agonist) of 57%.

`CC(C)(C)OC(=O)NCCOCCOc1ccc(-c2cc(=O)c3ccccc3o2)cc1` showed an IC50 against Cholinesterase [10] of 0.002 µM. The molecule further registered a Ki on Cannabinoid receptor 2 [11] of 4.5 µM.

On to `CCN(C)C(=O)Oc1ccc(Cc2nc3cc(C(=O)N(CC)CC)ccc3n2CCC(C)C)cc1`, for which the half-inhibitory concentration (IC50) against Acetylcholinesterase [2] was over 25.1 µM; on Cannabinoid receptor 2 [4] it was 11 µM; against Cholinesterase [7], 0.33 µM. This molecule also displayed an Activity in assay [6] (filed as agonist) of 40%.

For the molecule `CCN(CC)C(=O)c1ccc2c(c1)nc(Cc1ccccc1)n2CCC(C)C`, the IC50 at Acetylcholinesterase [2] is over 25.1 µM; on Acetylcholinesterase [9], 3.8 µM; against Cholinesterase [10] it was 0.0064 µM; against Cholinesterase [7] it was 0.05 µM.
